Test system: HepG2
Assay: cells
Settings: Homo sapiens, HepG2, 24 h
Description: Antiproliferative activity against human HepG2 cells after 24 hrs by MTT assay

Q: CCOC(=O)N/C=C/C(=O)c1cccc(NC(=S)Nc2ccc(S(=O)(=O)Nc3ccccn3)cc2)c1 was tested. Which IC50 did it give?
A: 1.9 µM

Q: Which IC50 does the source give for COC(=O)c1c(N/C=C/C(=O)c2ccc(NC(=S)Nc3ccc(S(=O)(=O)Nc4ccccn4)cc3)cc2)sc(C)c1C here?
A: 6.2 µM

Q: With COC(=O)/C=C(/C)N/C=C/C(=O)c1cccc(NC(=S)Nc2ccc(S(=O)(=O)Nc3ccccn3)cc2)c1 as the compound, how does the IC50 read?
A: 1.5 µM

Q: Which IC50 does the source give for O=C(/C=C/Nc1ccccc1)c1ccc(NC(=S)Nc2ccc(S(=O)(=O)Nc3ccccn3)cc2)cc1 here?
A: 3.9 µM

Q: CCOC(=O)N/C=C/C(=O)c1ccc(NC(=S)Nc2ccc(S(=O)(=O)Nc3ccccn3)cc2)cc1 was tested. Which IC50 did it give?
A: 0.12 µM

Q: Which IC50 does the source give for COC(=O)/C=C(/C)N/C=C/C(=O)c1ccc(NC(=S)Nc2ccc(S(=O)(=O)Nc3ccccn3)cc2)cc1 here?
A: 0.29 µM

Q: How did the IC50 turn out when O=C(/C=C/NCc1ccccc1)c1ccc(NC(=S)Nc2ccc(S(=O)(=O)Nc3ccccn3)cc2)cc1 was run?
A: 2.3 µM

Q: How did the IC50 turn out when Cc1c(N/C=C/C(=O)c2ccc(NC(=S)Nc3ccc(S(=O)(=O)Nc4ccccn4)cc3)cc2)c(=O)n(-c2ccccc2)n1C was run?
A: 8 µM

Q: With O=C(/C=C/Nc1ccc(F)cc1)c1ccc(NC(=S)Nc2ccc(S(=O)(=O)Nc3ccccn3)cc2)cc1 as the compound, how does the IC50 read?
A: 0.42 µM

Q: For O=C(/C=C/Nc1ccccn1)c1ccc(NC(=S)Nc2ccc(S(=O)(=O)Nc3ccccn3)cc2)cc1, which IC50 is on record?
A: 3.1 µM

Q: Which IC50 does the source give for CCOC(=O)c1ccc(N/C=C/C(=O)c2ccc(NC(=S)Nc3ccc(S(=O)(=O)Nc4ccccn4)cc3)cc2)cc1 here?
A: 0.66 µM

Q: O=C(/C=C/Nc1ccccc1O)c1cccc(NC(=S)Nc2ccc(S(=O)(=O)Nc3ccccn3)cc2)c1 was tested. Which IC50 did it give?
A: 2.9 µM

Q: O=C(/C=C/Nc1ccccc1Cl)c1ccc(NC(=S)Nc2ccc(S(=O)(=O)Nc3ccccn3)cc2)cc1 was tested. Which IC50 did it give?
A: 0.44 µM

Q: With CC(=O)c1cccc(NC(=S)Nc2ccc(S(=O)(=O)Nc3ccccn3)cc2)c1 as the compound, how does the IC50 read?
A: 5 µM

Q: With CCOC(=O)c1ccc(N/C=C/C(=O)c2cccc(NC(=S)Nc3ccc(S(=O)(=O)Nc4ccccn4)cc3)c2)cc1 as the compound, how does the IC50 read?
A: 1.5 µM

Q: Which IC50 does the source give for COC(=O)c1c(N/C=C/C(=O)c2cccc(NC(=S)Nc3ccc(S(=O)(=O)Nc4ccccn4)cc3)c2)sc(C)c1C here?
A: 10.8 µM

Q: For Cc1ccc(N/C=C/C(=O)c2cccc(NC(=S)Nc3ccc(S(=O)(=O)Nc4ccccn4)cc3)c2)c(C(=O)O)c1, which IC50 is on record?
A: 1.6 µM

Q: How did the IC50 turn out when O=C(/C=C/Nc1ccccc1)c1cccc(NC(=S)Nc2ccc(S(=O)(=O)Nc3ccccn3)cc2)c1 was run?
A: 4.7 µM

Q: Which IC50 does the source give for O=C(/C=C/Nc1ccccn1)c1cccc(NC(=S)Nc2ccc(S(=O)(=O)Nc3ccccn3)cc2)c1 here?
A: 4.7 µM

Q: O=S(=O)(Nc1ccccn1)c1ccc(N=C=S)cc1 was tested. Which IC50 did it give?
A: 5.5 µM

Q: Which IC50 does the source give for O=C(/C=C/NCc1ccccc1)c1cccc(NC(=S)Nc2ccc(S(=O)(=O)Nc3ccccn3)cc2)c1 here?
A: 2.5 µM

Q: Which IC50 does the source give for CNC(=O)c1cc(Oc2ccc(NC(=O)Nc3ccc(Cl)c(C(F)(F)F)c3)cc2)ccn1 [SORAFENIB] here?
A: 1.06 µM

Q: For CC(=O)c1ccc(NC(=S)Nc2ccc(S(=O)(=O)Nc3ccccn3)cc2)cc1, which IC50 is on record?
A: 6.9 µM

Q: For O=C(/C=C/Nc1ccccc1O)c1ccc(NC(=S)Nc2ccc(S(=O)(=O)Nc3ccccn3)cc2)cc1, which IC50 is on record?
A: 1.4 µM

Q: For O=C(/C=C/Nc1ccc(F)cc1)c1cccc(NC(=S)Nc2ccc(S(=O)(=O)Nc3ccccn3)cc2)c1, which IC50 is on record?
A: 1.2 µM

Q: O=C(/C=C/Nc1ccccc1Cl)c1cccc(NC(=S)Nc2ccc(S(=O)(=O)Nc3ccccn3)cc2)c1 was tested. Which IC50 did it give?
A: 0.5 µM

Q: Which IC50 does the source give for CN(C)/C=C/C(=O)c1ccc(NC(=S)Nc2ccc(S(=O)(=O)Nc3ccccn3)cc2)cc1 here?
A: 3.5 µM

Q: Which IC50 does the source give for Cc1ccc(C(=O)O)c(N/C=C/C(=O)c2ccc(NC(=S)Nc3ccc(S(=O)(=O)Nc4ccccn4)cc3)cc2)c1 here?
A: 0.58 µM

Q: Which IC50 does the source give for Cc1c(N/C=C/C(=O)c2cccc(NC(=S)Nc3ccc(S(=O)(=O)Nc4ccccn4)cc3)c2)c(=O)n(-c2ccccc2)n1C here?
A: 11.4 µM

Q: How did the IC50 turn out when CN(C)/C=C/C(=O)c1cccc(NC(=S)Nc2ccc(S(=O)(=O)Nc3ccccn3)cc2)c1 was run?
A: 5.5 µM

Test system: HepG2
Assay: cells
Settings: Homo sapiens, HepG2, light or radiation study
Description: Phototoxicity against human HepG2 cells assessed as reduction in cell viability pretreated for 2 hrs followed by 8 Gy gamma irradiation for 17.73 mins measured after 48 hrs by MTT assay

Q: CCOC(=O)N/C=C/C(=O)c1ccc(NC(=S)Nc2ccc(S(=O)(=O)Nc3ccccn3)cc2)cc1 was tested. Which IC50 did it give?
A: 0.07 µM

Q: For COC(=O)/C=C(/C)N/C=C/C(=O)c1ccc(NC(=S)Nc2ccc(S(=O)(=O)Nc3ccccn3)cc2)cc1, which IC50 is on record?
A: 0.16 µM

Q: Which IC50 does the source give for O=C(/C=C/Nc1ccc(F)cc1)c1ccc(NC(=S)Nc2ccc(S(=O)(=O)Nc3ccccn3)cc2)cc1 here?
A: 0.23 µM

Q: Which IC50 does the source give for CCOC(=O)c1ccc(N/C=C/C(=O)c2ccc(NC(=S)Nc3ccc(S(=O)(=O)Nc4ccccn4)cc3)cc2)cc1 here?
A: 0.39 µM

Q: How did the IC50 turn out when O=C(/C=C/Nc1ccccc1Cl)c1ccc(NC(=S)Nc2ccc(S(=O)(=O)Nc3ccccn3)cc2)cc1 was run?
A: 0.25 µM

Q: Cc1ccc(C(=O)O)c(N/C=C/C(=O)c2ccc(NC(=S)Nc3ccc(S(=O)(=O)Nc4ccccn4)cc3)cc2)c1 was tested. Which IC50 did it give?
A: 0.3 µM

From ChEMBL document CHEMBL4219206, “Novel thioureido-benzenesulfonamide derivatives with enaminone linker as potent anticancer, radiosensitizers and VEGFR2 inhibitors” (Bioorg Med Chem Lett, 2018)
